We go through two compounds from US20070117770A1, “Human ribosomal DNA (rDNA) and ribosomal RNA (rRNA) nucleic acids and uses thereof” (Cylene Pharmaceuticals, Inc., priority 2005, published 2007).

Holding throughout (assay): Protein kinase inhibition assay
Common to all, as to assay type: biochemical

The target in one experiment is DDR2(h) (Homo sapiens, UniProt Q16832). The following applies: read-out: percent residual activity of DDR2(h). As for the experimental part: (§1) Certain compounds were tested for activity in protein kinase inhibition assays. All substrates were dissolved and diluted to working stocks in de-ionized water, apart from histone H1 (10× working stock in 20 mM MOPS pH 7.0), PDKtide (10× working stock in 50 mM Tris pH 7.0) ATF2 (which is typically stored at a 20× working stock in 50 mM Tris pH 7.5, 150 mM NaCl, 0.1 mM EGTA, 0.03% Brij-35, 50% glycerol, 1 mM benzamidine, 0.2 mM PMSF and 0.1% R-mercaptoethanol), KKLNRTLSFAEPG (SEQ ID NO:203) and RRRLSFAEPG (SEQ ID NO:204) (50 mM HEPES pH 7.4) and GGEEEEYFELVKKKK (SEQ ID NO:205) (20 mM MOPS pH 7.0). All kinases were pre-diluted to a 10× working concentration prior to addition into the assay. The composition of the dilution buffer for each kinase is detailed below.
Chain of DDR2(h) (Q16832 22-855): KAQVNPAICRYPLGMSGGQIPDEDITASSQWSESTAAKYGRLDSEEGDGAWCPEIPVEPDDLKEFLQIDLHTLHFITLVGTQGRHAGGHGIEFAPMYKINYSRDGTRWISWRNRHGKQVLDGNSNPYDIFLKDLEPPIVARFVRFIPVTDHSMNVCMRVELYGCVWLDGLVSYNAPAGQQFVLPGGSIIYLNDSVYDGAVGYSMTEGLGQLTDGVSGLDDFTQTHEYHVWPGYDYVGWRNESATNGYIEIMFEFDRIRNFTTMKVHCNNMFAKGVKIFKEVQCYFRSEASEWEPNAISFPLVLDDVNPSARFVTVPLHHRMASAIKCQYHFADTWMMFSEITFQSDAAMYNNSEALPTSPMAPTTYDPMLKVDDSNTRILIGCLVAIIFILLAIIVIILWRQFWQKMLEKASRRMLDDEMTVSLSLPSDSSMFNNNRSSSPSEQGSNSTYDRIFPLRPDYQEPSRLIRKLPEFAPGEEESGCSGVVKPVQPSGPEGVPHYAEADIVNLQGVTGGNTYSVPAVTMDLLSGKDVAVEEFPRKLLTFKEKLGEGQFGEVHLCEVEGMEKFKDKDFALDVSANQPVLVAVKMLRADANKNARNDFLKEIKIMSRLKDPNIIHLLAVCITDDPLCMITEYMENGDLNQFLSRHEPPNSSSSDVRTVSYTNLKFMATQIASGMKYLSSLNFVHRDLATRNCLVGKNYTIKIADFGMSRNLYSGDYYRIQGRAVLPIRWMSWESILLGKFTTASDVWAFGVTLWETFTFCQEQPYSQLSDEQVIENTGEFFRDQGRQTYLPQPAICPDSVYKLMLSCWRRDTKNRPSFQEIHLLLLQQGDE
In a final reaction volume of 25 μl, DDR2 (h) (5-10 mU) is incubated with 8 mM MOPS pH 7.0, 0.2 mM EDTA, 250 μM KKSRGDYMTMQIG (SEQ ID NO:210), 10 mM MnCl2, 10 mM MgAcetate and [y-33P-ATP] (specific activity approx. 500 cpm/pmol, concentration as required). The reaction is initiated by the addition of the MgATP mix. After incubation for 40 minutes at room temperature, the reaction is stopped by the addition of 5 μl of a 3% phosphoric acid solution. […]

The target in the next experiment is SAPK2a(h) (Homo sapiens, UniProt Q16539). The note with it: read-out: percent residual activity of SAPK2a(h). As to the method: as §1
Chain of SAPK2a(h) (Q16539 whole entry): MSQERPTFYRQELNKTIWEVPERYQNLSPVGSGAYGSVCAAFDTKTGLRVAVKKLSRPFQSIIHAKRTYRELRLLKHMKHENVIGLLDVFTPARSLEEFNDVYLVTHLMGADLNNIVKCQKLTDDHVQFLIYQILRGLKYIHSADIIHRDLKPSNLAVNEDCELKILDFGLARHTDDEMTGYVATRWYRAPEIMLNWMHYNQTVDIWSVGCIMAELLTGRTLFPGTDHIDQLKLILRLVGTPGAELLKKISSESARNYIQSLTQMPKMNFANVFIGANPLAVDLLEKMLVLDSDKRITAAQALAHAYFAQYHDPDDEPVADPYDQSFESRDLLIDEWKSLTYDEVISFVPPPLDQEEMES
(§2) In a final reaction volume of 25 μl, SAPK2a (h) (5-10 mU) is incubated with 25 mM Tris pH 7.5, 0.02 mM EGTA, 0.33 mg/ml myelin basic protein, 10 mM MgAcetate and [gamma-33P-ATP] (specific activity approx. 500 cpm/pmol, concentration as required). The reaction is initiated by the addition of the MgATP mix. After incubation for 40 minutes at room temperature, the reaction is stopped by the addition of 5 μl of a 3% phosphoric acid solution. 10 μl of the reaction is then spotted onto a P30 filtermat and washed three times for 5 minutes in 75 mM phosphoric acid and once in methanol prior to drying and scintillation counting.

Another experiment has as its target EGFR(L861Q)(h) (Homo sapiens, UniProt P00533, L861Q). The following applies: read-out: percent residual activity of EGFR(L861Q)(h). As for the experimental part:
as §1
In a final reaction volume of 25 μl, EGFR (L861 Q) (h) (5-10 mU) is incubated with 8 mM MOPS pH 7.0, 0.2 mM EDTA, 0.1 mg/ml poly(Glu, Tyr) 4:1, 10 mM MgAcetate and [gamma-33P-ATP] (specific activity approx. 500 cpm/pmol, concentration as required). The reaction is initiated by the addition of the MgATP mix. After incubation for 40 minutes at room temperature, the reaction is stopped by the addition of 5 μl of a 3% phosphoric acid solution. 10 μl of the reaction is then spotted onto a Filtermat A and washed three times for 5 minutes in 75 mM phosphoric acid and once in methanol prior to drying and scintillation counting.

Another experiment has as its target BTK(h) (Homo sapiens, UniProt Q06187). The note with it: read-out: percent residual activity of BTK(h). As for the experimental part: as §1
In a final reaction volume of 25 μl, BTK (h) (5-10 mU) is incubated with 8 mM MOPS pH 7.0, 0.2 mM EDTA, 250 μM KVEKIGEGTYGVVYK (SEQ ID NO:211) (Cdc2 peptide), 10 mM MgAcetate and [gamma-33P-ATP] (specific activity approx. 500 cpm/pmol, concentration as required). The reaction is initiated by the addition of the MgATP mix. After incubation for 40 minutes at room temperature, the reaction is stopped by the addition of 5 μl of a 3% phosphoric acid solution. […]

In the next experiment the target is IRR(h) (Homo sapiens, UniProt P14616). The note with it: read-out: percent residual activity of IRR(h). As to the method:
as §1
as §2, with “μl, IRR” for “μl, SAPK2a”, “with 8” for “with 25”, “mM MOPS” for “mM Tris”, “pH 7.0, 0.2” for “pH 7.5, 0.02”, “mM EDTA,” for “mM EGTA,”

In the next experiment the target is T1, MKK7β(h) (Homo sapiens, UniProt O14733).
T1 sequence (O14733 1-419): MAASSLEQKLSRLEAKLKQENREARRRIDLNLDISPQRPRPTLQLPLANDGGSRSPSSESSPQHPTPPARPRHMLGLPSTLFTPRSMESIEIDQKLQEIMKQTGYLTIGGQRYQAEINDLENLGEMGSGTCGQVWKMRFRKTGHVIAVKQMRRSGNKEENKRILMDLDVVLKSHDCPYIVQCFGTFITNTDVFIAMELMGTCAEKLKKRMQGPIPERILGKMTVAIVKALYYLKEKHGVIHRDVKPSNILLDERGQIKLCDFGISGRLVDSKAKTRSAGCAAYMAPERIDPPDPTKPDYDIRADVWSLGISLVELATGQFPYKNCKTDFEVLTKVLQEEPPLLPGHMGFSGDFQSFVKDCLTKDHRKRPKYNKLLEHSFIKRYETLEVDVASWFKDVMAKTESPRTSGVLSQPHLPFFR
The note with it: for remaining activity at 2.5 µM: read-out: percent residual activity of MKK7β(h). As for the experimental part: as §1
The reaction is initiated by the addition of the MgATP. After incubation for 40 minutes at room temperature, 5 μl of this incubation mix is used to initiate a JNK1α1 (h) assay, which is exactly as described on page 11 of this book except that ATF2 is replaced with 250 μM peptide.

Chain of BTK(h) (Q06187 whole entry): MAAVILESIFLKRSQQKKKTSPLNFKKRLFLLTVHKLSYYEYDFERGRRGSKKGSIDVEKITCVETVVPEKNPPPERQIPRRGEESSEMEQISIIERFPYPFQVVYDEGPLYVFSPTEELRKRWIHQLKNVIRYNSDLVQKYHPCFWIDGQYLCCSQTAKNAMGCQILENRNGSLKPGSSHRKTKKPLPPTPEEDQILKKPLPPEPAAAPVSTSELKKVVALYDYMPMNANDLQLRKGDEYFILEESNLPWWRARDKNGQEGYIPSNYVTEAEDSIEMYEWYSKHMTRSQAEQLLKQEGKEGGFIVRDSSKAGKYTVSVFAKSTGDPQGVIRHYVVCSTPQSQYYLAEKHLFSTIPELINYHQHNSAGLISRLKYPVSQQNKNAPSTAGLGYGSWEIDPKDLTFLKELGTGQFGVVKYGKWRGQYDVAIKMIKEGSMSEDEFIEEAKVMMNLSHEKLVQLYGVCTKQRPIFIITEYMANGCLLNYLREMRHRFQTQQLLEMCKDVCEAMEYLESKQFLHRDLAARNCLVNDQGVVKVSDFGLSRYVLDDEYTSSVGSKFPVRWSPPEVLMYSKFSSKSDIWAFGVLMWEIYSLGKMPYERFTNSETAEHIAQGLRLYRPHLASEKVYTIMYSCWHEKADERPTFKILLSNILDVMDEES
Chain of EGFR(L861Q)(h) (P00533 25-1210 L861Q): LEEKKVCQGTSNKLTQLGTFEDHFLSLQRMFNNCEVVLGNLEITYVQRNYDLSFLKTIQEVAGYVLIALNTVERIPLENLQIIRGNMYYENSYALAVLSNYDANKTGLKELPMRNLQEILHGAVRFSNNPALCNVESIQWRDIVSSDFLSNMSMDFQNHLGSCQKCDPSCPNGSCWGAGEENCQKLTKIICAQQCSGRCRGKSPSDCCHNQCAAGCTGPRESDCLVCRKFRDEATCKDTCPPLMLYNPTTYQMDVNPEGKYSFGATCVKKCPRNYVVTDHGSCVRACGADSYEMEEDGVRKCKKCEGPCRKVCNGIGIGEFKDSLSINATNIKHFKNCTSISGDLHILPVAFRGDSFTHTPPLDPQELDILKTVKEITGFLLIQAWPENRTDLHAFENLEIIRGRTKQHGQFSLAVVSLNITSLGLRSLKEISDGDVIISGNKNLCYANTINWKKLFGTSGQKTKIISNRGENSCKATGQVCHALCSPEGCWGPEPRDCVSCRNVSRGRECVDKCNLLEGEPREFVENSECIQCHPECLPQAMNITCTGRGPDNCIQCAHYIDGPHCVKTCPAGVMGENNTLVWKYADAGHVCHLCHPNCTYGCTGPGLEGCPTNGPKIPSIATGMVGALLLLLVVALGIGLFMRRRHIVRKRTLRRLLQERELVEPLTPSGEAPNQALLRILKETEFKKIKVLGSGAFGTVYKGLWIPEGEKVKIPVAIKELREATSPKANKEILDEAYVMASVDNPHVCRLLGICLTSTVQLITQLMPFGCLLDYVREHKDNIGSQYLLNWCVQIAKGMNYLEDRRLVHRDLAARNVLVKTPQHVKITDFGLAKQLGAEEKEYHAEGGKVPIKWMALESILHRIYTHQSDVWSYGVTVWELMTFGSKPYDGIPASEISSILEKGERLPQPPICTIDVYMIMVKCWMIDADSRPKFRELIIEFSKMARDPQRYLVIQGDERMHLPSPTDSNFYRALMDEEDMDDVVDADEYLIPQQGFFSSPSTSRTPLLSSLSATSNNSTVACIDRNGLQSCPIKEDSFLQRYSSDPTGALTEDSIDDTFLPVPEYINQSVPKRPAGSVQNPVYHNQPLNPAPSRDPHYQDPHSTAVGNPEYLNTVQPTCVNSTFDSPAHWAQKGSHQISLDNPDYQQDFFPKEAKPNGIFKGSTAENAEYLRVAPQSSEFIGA
Chain of IRR(h) (P14616 27-1297): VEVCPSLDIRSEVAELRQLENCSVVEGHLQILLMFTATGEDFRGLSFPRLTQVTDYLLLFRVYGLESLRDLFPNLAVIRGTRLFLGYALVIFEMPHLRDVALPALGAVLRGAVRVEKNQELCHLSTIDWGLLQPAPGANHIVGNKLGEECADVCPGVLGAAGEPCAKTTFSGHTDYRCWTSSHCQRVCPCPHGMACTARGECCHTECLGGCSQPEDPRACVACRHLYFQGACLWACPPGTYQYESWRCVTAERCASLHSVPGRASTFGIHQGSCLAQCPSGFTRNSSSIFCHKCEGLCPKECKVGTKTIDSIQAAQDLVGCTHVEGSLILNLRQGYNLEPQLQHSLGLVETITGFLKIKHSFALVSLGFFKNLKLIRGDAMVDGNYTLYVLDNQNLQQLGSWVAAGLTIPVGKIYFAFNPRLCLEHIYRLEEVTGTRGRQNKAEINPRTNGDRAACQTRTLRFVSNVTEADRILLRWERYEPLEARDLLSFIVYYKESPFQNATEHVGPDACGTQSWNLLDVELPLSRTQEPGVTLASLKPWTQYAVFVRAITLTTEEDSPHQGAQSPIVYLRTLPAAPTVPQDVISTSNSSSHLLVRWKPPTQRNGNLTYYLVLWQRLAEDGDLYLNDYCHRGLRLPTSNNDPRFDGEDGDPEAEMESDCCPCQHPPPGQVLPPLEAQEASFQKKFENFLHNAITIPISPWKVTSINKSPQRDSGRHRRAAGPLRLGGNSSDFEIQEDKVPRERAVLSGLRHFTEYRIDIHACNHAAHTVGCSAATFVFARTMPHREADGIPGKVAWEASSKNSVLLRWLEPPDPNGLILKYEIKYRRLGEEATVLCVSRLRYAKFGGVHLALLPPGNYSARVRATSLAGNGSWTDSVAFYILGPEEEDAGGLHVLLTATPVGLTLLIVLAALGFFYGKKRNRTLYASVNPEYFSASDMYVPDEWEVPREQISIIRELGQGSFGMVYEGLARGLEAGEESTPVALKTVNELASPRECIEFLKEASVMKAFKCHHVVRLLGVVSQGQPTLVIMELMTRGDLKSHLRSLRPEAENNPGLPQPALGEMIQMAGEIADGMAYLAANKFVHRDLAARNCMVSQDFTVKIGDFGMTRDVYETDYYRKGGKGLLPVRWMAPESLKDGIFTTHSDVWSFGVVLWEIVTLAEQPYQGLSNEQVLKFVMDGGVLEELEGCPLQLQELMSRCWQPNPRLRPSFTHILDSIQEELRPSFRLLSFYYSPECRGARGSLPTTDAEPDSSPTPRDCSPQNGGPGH

With `CN1CCCC1CCNC(=O)c1cn2c3c(c(N4CCC(c5cnccn5)C4)c(F)cc3c1=O)Oc1cc3ccccc3cc1-2` (stereo not shown) [Compound A-1], the remaining activity at 2.5 µM was 77% on DDR2(h); 97% at SAPK2a(h); 94% at EGFR(L861Q)(h); 60% on BTK(h); 97% at IRR(h); 111% at MKK7β(h).
As for `CC(=O)N1CCN(c2ccc3c(=O)c(C(=O)NCCN4CCCC4)c4n(C)c5ccccc5n4c3n2)CC1` [Compound B-1], the remaining activity at 2.5 µM was determined as 95% on DDR2(h); 103% at SAPK2a(h); 109% at EGFR(L861Q)(h); 101% at BTK(h); 103% on IRR(h); 1% on MKK7β(h). On MKK7β(h) (2.5 μM), the “inhibition of MKK7B” value was “inhibits MKK7B”.
